Reference: patent publication EP4664463A1, “COMPUTER-IMPLEMENTED METHOD FOR OLFACTORY PROPERTY PREDICTION” (Givaudan SA, priority 2024, dated 2025)
“And” between values parts separate entries of the source, which are not always exact repeats. Equal values may be shown once. Read-outs that look alike come from different tables or passages of the source.

Columns and labels:
OR52A5 [1] = experiment: cell-based; format: cell-based, human
OR52A5 [2] = target: T1, OR52A5 (Homo sapiens, UniProt Q9H2C5); experiment: cell-based; format: cell-based
T1 construct: expressed in transfected cells; host or cells: HEK293T cells stably expressing human RTP1S (V227I) and RTP2 (L220R)
T1 sequence (Q9H2C5 whole entry): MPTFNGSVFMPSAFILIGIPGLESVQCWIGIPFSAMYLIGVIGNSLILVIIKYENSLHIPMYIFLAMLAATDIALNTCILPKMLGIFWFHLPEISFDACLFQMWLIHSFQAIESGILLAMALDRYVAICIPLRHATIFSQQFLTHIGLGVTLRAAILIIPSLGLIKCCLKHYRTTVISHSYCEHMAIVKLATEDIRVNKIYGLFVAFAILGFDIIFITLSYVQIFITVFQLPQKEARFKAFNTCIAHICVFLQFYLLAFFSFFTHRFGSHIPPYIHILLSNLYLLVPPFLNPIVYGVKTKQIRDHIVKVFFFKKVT

OR52A5 [3] = target: T2, OR52A5 (Homo sapiens, UniProt Q9H2C5); experiment: cell-based; format: cell-based; remark: listed apart in the source
T2 construct: expressed in transfected cells; host or cells: HEK293T cells stably expressing human RTP1S (V227I) and RTP2 (L220R)
T2 sequence (Q9H2C5 with tags, fused parts or gaps): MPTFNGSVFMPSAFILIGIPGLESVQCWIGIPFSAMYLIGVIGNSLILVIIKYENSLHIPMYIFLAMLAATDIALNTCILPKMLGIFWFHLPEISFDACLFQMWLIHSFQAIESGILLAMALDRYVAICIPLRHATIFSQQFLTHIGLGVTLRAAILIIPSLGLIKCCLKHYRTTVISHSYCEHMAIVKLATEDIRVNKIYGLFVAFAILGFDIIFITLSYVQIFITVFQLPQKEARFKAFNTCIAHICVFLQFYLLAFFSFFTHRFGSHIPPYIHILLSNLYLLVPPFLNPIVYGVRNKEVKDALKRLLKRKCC

[4] = target: T3, OR identified in the library screening (receptor named per line) (Homo sapiens, UniProt Q8NGX5); experiment: Confirmatory dose-response of library hits, wild-type OR vs OR with C-terminus SEQ ID NO: 221 (Table 17); format: cell-based; conditions: receptor OR10K1, wild-type sequence; read-out: Potency EC50 wild-type (converted)
T3 construct: expressed in transfected cells; host or cells: HEK293T stably expressing human RTP1S(V227I) and RTP2(L220R) (general method)
Method: (§3) Selected ligand - OR pairs were then tested in a confirmatory test with a dose response analysis.
(§4) Dose-response analysis with the cognate ligand was then performed for both the wild-type and the modified sequence.

OR1N2 [5] = target: T4, OR1N2 (Homo sapiens, UniProt Q8NGR9); format: cell-based; conditions: changed C-term. SEQ ID NO: 86
T4 construct: expressed in transfected cells; host or cells: HEK293T cells stably expressing human RTP1S (V227I) and RTP2 (L220R)
Text: (§1) To create an expression plasmid, an OR coding sequence fused at the end of TM7 to the desired C-terminus sequence was synthesized by a DNA synthesis service provider (BioCat GmbH, Germany) and inserted into pcDNA3.1(+) (Invitrogen, MA, USA) downstream of the CMV promoter sequence (SEQ ID NO: 82) using BamHI and Notl restriction sites. All the synthetic OR nucleotide sequences described below in Examples 1-15 further contained at their N-terminus a nucleotide sequence encoding a signal peptide (mmLucy-FLAG-rho, SeQ ID NOs: 80, 81) and at the C-terminus the bgh terminator sequence (SEQ ID NO: 83). All the OR expression plasmids also contain a Kozak sequence (GCCACC) between the BamHI restriction site and the start codon of the signal peptide. These plasmids thus contain a constitutively expressed OR gene.
T4 sequence (Q8NGR9 with tags, fused parts or gaps): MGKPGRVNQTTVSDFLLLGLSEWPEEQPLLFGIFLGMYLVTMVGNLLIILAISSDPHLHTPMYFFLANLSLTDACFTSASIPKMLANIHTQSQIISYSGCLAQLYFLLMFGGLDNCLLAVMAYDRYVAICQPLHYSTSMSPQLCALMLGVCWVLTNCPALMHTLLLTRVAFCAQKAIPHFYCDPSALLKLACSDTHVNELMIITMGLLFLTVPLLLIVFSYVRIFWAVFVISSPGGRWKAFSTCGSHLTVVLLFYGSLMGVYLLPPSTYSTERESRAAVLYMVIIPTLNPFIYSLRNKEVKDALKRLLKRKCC

OR1N2 [6] = target: T5, OR1N2 (Homo sapiens, UniProt Q8NGR9); format: cell-based; conditions: wild-type
T5 construct: expressed in transfected cells; host or cells: HEK293T cells stably expressing human RTP1S (V227I) and RTP2 (L220R)
Text: as §1
T5 sequence (Q8NGR9 whole entry): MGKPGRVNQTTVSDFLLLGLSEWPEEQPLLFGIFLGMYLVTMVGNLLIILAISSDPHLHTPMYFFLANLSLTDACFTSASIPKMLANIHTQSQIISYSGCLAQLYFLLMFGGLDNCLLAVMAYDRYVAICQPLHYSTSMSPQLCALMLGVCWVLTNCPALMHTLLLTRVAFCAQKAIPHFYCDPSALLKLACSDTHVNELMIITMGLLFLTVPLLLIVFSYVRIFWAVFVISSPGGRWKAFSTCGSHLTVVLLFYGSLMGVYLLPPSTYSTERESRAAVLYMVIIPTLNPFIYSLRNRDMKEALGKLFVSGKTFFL

OR7A17 [7] = target: T6, OR7A17 (Homo sapiens, UniProt O14581); experiment: Detection of Ambrofix spiked into Geranium oil on OR7A17 with SEQ ID 221; format: cell-based
T6 construct: expressed in transfected cells; host or cells: HEK293T cells stably expressing human RTP1S (V227I) and RTP2 (L220R) (general approach)
T6 sequence (O14581 with tags, fused parts or gaps): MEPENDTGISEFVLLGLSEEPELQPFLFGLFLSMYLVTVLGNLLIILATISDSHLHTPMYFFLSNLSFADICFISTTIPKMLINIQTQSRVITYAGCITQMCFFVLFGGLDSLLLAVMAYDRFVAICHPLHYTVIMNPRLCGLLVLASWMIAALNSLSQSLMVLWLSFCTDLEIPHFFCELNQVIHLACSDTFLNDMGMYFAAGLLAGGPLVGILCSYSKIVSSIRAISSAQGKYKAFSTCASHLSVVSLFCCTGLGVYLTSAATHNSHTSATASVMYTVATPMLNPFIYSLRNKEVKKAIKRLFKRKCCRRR
Method: These mixtures were tested with OR7A17 with a C-terminal domain of SEQ ID 221 (a DNA sequence encoding the modified receptor is included as SEQ ID NO: 611) as described in example 20.

OR7A17 [8] = experiment: Luciferase dose-response, wild-type vs changed C-terminus (SEQ ID NO: 86); format: cell-based, human
Text: as §1
(§2) Thus, optimal improvement of activity is not achieved by the approach of just using the parent C-terminus and mutating it towards consensus, but rather by exchanging the C-terminal sequence with the optimized sequence described herein.

OR7A17 [9] = target: T7, OR7A17 (Homo sapiens, UniProt O14581, D296E/I297V/R299D); experiment: as above; format: cell-based
T7 construct: expressed in transfected cells; host or cells: HEK293T cells stably expressing human RTP1S (V227I) and RTP2 (L220R)
T7 sequence (O14581 with tags, fused parts or gaps D296E/I297V/R299D): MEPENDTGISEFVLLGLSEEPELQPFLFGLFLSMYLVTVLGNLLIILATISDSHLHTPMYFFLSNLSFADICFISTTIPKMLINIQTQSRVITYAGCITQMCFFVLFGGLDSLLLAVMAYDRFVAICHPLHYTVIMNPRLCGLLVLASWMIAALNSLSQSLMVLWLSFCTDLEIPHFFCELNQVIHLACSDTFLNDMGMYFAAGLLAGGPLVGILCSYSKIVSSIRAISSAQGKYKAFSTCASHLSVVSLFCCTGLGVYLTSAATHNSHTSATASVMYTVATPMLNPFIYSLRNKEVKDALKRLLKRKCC
Text: as §1, §2

OR7A17 [10] = target: T8, OR7A17 (Homo sapiens, UniProt O14581); experiment: as above; format: cell-based; conditions: wild-type
T8 construct: expressed in transfected cells; host or cells: HEK293T cells stably expressing human RTP1S (V227I) and RTP2 (L220R)
Text: as §1, §2
T8 sequence (O14581 whole entry): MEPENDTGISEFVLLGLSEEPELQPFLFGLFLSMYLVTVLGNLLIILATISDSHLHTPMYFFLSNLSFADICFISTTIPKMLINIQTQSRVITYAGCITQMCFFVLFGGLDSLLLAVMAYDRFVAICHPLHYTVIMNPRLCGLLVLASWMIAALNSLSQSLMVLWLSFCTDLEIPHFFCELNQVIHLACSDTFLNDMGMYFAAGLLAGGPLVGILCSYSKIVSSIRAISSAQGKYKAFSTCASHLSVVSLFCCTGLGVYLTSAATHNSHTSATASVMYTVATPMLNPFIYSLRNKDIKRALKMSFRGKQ

[11] = target: T9, OR identified in the library screening (receptor named per line) (Homo sapiens, UniProt Q8NG80); experiment: Confirmatory dose-response of library hits, wild-type OR vs OR with C-terminus SEQ ID NO: 221 (Table 17); format: cell-based; conditions: receptor OR2L5, wild-type sequence; read-out: Potency EC50 wild-type (converted)
T9 construct: expressed in transfected cells; host or cells: HEK293T stably expressing human RTP1S(V227I) and RTP2(L220R) (general method)
Method: as §3, §4

[12] = system: library of all class II OR with modified C-terminal domain RNKEVKKAIKRLFKRKCCRRR (SEQ ID NO: 221); experiment: Screening of the library of all class II OR with single odorants (luciferase); format: cell-based, human; conditions: full class II OR library (n = 408); maximal non-cytotoxic concentration
Method: All human class II OR and all key genetic variants of these OR were synthesized with a sequence coding for an identical modified C-terminal domain […] (SEQ ID NO: 221) in the vector pcDNA3.1(+) to generate a library of all class II OR with an improved C-terminal domain. Class II OR library members with modified C-terminal domains
Parallel transfection experiments were conducted with all these plasmids (n = 408) and cells expressing the different OR were stimulated with one given ligand at a time, tested at the maximal, clearly non-cytotoxic concentration. In total 26 different ligands were tested on the full library of class II receptors.

OR5AN1 = target: T10, OR5AN1 (Homo sapiens, UniProt Q8NGI8); experiment: Chimeric OR5AN1 with C-terminal sequence of OR1N2 (luciferase); format: cell-based
T10 construct: expressed in transfected cells; host or cells: HEK293T stably expressing human RTP1S(V227I) and RTP2(L220R)
T10 sequence (Q8NGI8 with tags, fused parts or gaps limits assumed): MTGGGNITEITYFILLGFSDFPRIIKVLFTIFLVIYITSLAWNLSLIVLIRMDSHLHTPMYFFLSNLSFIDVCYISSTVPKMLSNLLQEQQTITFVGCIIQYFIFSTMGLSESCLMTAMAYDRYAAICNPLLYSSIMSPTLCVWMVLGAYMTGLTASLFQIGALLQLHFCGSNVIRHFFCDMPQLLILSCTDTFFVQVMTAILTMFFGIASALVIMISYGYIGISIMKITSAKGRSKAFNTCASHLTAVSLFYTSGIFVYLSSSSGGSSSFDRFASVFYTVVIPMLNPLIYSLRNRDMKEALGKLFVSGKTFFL
Text: Similarly, the C-terminal sequence of OR5AN1 was replaced with the C-terminal sequence of the ambrettolide receptor OR1 N2.

OR5A2 [13] = target: T11, OR5A2 (Homo sapiens, UniProt Q8NGI9); experiment: Luciferase dose-response, wild-type vs changed C-terminus (SEQ ID NO: 86); format: cell-based; conditions: wild-type OR5A2
T11 construct: expressed in transfected cells; host or cells: HEK293T cells with stably integrated human RTP1S (V227I) and RTP2 (L220R)
T11 sequence (Q8NGI9 1-324): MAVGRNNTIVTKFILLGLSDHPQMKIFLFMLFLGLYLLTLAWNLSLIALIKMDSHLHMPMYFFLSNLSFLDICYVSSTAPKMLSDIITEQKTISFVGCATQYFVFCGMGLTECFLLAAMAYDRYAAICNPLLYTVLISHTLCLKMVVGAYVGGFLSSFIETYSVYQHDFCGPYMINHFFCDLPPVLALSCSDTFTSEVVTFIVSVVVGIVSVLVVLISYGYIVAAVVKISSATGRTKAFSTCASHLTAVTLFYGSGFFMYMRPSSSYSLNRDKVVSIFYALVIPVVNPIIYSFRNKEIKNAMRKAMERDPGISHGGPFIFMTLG

OR5A2 [14] = target: T12, OR5A2 (Homo sapiens, UniProt Q8NGI9); experiment: as above; format: cell-based; conditions: OR5A2 with SEQ ID NO: 86
T12 construct: expressed in transfected cells; host or cells: HEK293T cells with stably integrated human RTP1S (V227I) and RTP2 (L220R)
T12 sequence (Q8NGI9 with tags, fused parts or gaps): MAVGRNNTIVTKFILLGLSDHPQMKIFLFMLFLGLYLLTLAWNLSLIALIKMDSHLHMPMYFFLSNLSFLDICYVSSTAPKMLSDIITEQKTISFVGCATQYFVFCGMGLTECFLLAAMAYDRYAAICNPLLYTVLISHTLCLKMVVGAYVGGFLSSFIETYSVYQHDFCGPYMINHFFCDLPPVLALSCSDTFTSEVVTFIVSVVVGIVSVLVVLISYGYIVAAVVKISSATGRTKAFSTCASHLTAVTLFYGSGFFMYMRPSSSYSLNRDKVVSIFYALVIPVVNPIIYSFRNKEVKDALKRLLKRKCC

OR5A2 [15] = experiment: Dose-dependent luciferase induction by muscone of OR5A2 C-terminal variants; format: cell-based, human; conditions: modified OR5A2
Text: as §1
Table 11. Dose-dependent induction OR5A2 with two different variants of the C-terminal sequence motif (Shown is fold-induction of luciferase)

OR9Q2 [16] = target: T13, OR9Q2 (Homo sapiens, UniProt Q8NGE9); experiment: Luciferase dose-response, wild-type vs changed C-terminus (SEQ ID NO: 86); format: cell-based; conditions: changed C-term SEQ ID NO: 86; read-out: Potency EC50
T13 construct: expressed in transfected cells; host or cells: HEK293T cells stably expressing human RTP1S (V227I) and RTP2 (L220R)
T13 sequence (Q8NGE9 with tags, fused parts or gaps): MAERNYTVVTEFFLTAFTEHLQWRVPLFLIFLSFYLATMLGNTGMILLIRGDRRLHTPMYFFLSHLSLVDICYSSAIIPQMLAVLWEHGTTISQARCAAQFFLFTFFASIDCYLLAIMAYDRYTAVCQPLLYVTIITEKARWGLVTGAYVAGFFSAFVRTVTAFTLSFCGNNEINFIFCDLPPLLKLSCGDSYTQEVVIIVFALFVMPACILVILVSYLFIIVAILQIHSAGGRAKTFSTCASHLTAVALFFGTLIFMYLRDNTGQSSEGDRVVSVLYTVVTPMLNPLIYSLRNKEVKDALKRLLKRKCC

OR9Q2 [17] = target: T14, OR9Q2 (Homo sapiens, UniProt Q8NGE9); experiment: as above; format: cell-based; conditions: wild-type; read-out: Potency EC50
T14 construct: expressed in transfected cells; host or cells: HEK293T cells stably expressing human RTP1S (V227I) and RTP2 (L220R)
T14 sequence (Q8NGE9 whole entry): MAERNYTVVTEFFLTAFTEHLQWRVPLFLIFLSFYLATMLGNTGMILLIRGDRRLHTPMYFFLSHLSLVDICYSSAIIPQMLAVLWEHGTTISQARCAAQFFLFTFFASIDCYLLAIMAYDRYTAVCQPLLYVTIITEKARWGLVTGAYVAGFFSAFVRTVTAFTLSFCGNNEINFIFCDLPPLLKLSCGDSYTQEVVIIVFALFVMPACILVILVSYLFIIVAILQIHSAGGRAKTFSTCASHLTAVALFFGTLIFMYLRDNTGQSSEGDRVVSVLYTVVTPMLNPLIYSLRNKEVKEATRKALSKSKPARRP

[18] = target: T15, OR identified in the library screening (receptor named per line) (Homo sapiens, UniProt Q8NGG4); experiment: Confirmatory dose-response of library hits, wild-type OR vs OR with C-terminus SEQ ID NO: 221 (Table 17); format: cell-based; conditions: receptor OR8H1, wild-type sequence; read-out: Potency EC50 wild-type (converted)
T15 construct: expressed in transfected cells; host or cells: HEK293T stably expressing human RTP1S(V227I) and RTP2(L220R) (general method)
Method: as §3, §4

[19] = target: T16, OR identified in the library screening (receptor named per line) (Homo sapiens, UniProt Q8WZ84); experiment: as above; format: cell-based; conditions: receptor OR8D1, wild-type sequence; read-out: Potency EC50 wild-type (converted)
T16 construct: expressed in transfected cells; host or cells: HEK293T stably expressing human RTP1S(V227I) and RTP2(L220R) (general method)
Method: as §3, §4

[20] = target: T17, OR identified in the library screening (receptor named per line) (Homo sapiens, UniProt Q8NGN4); experiment: as above; format: cell-based; conditions: receptor OR10G9, wild-type sequence; read-out: Potency EC50 wild-type (converted)
T17 construct: expressed in transfected cells; host or cells: HEK293T stably expressing human RTP1S(V227I) and RTP2(L220R) (general method)
Method: as §3, §4

[21] = target: T18, OR identified in the library screening (receptor named per line) (Homo sapiens, UniProt Q8NGC4, S73G); experiment: as above; format: cell-based; conditions: receptor OR10G3(S73G), wild-type sequence; read-out: Potency EC50 wild-type (converted)
T18 construct: expressed in transfected cells; host or cells: HEK293T stably expressing human RTP1S(V227I) and RTP2(L220R) (general method)
T18 sequence (Q8NGC4 whole entry S73G): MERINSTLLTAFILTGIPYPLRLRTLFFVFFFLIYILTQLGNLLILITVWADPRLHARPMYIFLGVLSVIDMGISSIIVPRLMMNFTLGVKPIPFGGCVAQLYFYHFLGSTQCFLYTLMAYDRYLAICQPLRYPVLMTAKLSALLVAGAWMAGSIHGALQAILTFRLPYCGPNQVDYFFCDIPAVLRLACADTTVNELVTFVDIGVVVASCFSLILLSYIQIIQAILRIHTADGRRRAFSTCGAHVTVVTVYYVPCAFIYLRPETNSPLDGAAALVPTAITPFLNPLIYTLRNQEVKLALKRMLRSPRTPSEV
Method: as §3, §4

[22] = target: T19, OR identified in the library screening (receptor named per line) (Homo sapiens, UniProt Q8NGJ0); experiment: as above; format: cell-based
T19 construct: expressed in transfected cells; host or cells: HEK293T stably expressing human RTP1S(V227I) and RTP2(L220R) (general method)
Method: as §3, §4

[23] = changed C-term SEQ ID NO: 86, read-out: Potency EC50

## CCCCC(CC)CCC(=O)O (stereo not shown) [4-ethyloctanoic acid]
OR52A5 [1]
  Comments on efficacy: 2.5-fold lower maximal induction for wild-type
  Fold-improvement threshold: >10
OR52A5 [2]
  Detection threshold; concentration for 2-fold induction: >1000 µM
OR52A5 [3]
  Detection threshold; concentration for 2-fold induction: 101 µM
OR52A5 [3]; [23]
  EC50: 300 µM

## CC(C)CCc1ccc2c(c1)OCC(=O)CO2 [7-(3-Methylbutyl)-benzo[b][1,4]dioxepin-3-one]
[4]
  EC50: 6.8 µM

## O=C1CCCCCCCC=CCCCCCCO1 [Ambrettolide]
OR1N2 [5]
  Detection threshold; concentration for 2-fold induction: 0.26 µM
OR1N2 [6]
  Detection threshold; concentration for 2-fold induction: 1.33 µM

## CC1(C)CCCC2(C)C1CCC1(C)OCCC12 (stereo not shown) [Ambrofix]
OR7A17 [7]
  detectable concentration of target ingredient against a complex matrix: ≤ 0.1%
OR7A17 [8]
  Comments on efficacy: 2-fold lower maximal induction for wild-type
  Fold-improvement potency: 4.2
  Fold-improvement threshold: 18 and 18.4
OR7A17 [8]; OR7A17 C-terminus altered towards consensus
  lowering of detection threshold vs wild-type: 3 fold
OR7A17 [8]; OR7A17 C-terminus altered towards consensus (5 amino acids)
  detection threshold for two-fold induction: 0.6 µM
OR7A17 [9]; [23]
  EC50: 1.3 µM
OR7A17 [9]; changed C-term. SEQ ID NO: 86
  Detection threshold; concentration for 2-fold induction: 0.1 µM
OR7A17 [10]
  Detection threshold; concentration for 2-fold induction: 1.9 µM
OR7A17 [10]; read-out: Potency EC50
  EC50: 5.6 µM

## CCOC(=O)C1CCCCC1 [Ethyl cyclohexanecarboxylate (Esterly), Ethyl cyclohexanecarboxylate]
[11]
  EC50: 115 µM

## C[C@@H]1CCCCCCCCCCCCC(=O)C1 [Muscone]
[12]
  Activated OR and OR variants: OR5AN1, OR5A2
OR5AN1
  functional response: not showing any functional response
OR5A2 [13]
  activation of the wild-type receptor: No activation
OR5A2 [14]
  concentration at which activation occurs: 1 µM
OR5A2 [15]
  concentration at which induction starts: 0.03 µM

## Cc1ccc(O)cc1 [Para-Cresol]
OR9Q2 [16]
  EC50: 2.8 µM
OR9Q2 [17]
  EC50: 30.7 µM

## N#CC(=C1CCCCC1)c1ccccc1 [Peonile]
[18]
  EC50: 17.3 µM

## CC1=C(O)C(=O)OC1C (stereo not shown) [Sotolon e]
[19]
  EC50: 19 µM

## CCOc1cc(C)ccc1O [Ultravan il]
[20]
  EC50: 91.4 µM

## COc1cc(C=O)ccc1O [Vanillin]
[21]
  EC50: 261 µM

## CC(=O)/C=C/C1=C(C)CCCC1(C)C [β-lonone]
[22]
  EC50: 48.3 µM
